Laboratory results taken from US12653776B2, “Methods of treatment of cancer by continuous infusion of coenzyme Q10” (priority 2013, dated 2026).

Tests used:
[1] = test system: liver chloromas (MIA C51 clone); experiment: Liver chloroma rat model, survival; format: in vivo, rats
Excerpt: The effect of dosing schedule of coenzyme Q10 was also investigated in rats bearing liver or lung chloromas. Rats were transplanted with liver or lung clones of malignant chloromas derived from a stable myelogenous leukemia (chloroleukemia) cell line, MIA C51 (see. e.g., Jimenez and Yunis (1987) Science 238: 1278-1280). The clones have been selected to home to and form tumors in the liver or lungs, respectively. Rats were randomized to receive either no treatment, injection 3 times a day with 40 mg/mL (4%) coenzyme Q10, or continuous infusion of 40 mg/mL (4%) coenzyme Q10 via an implanted pump, to deliver for each regimen a total dose of 50 mg/kg body weight per day. […] For example, at Day 189 in the liver chloroma model, 45 of 50 rats were alive in the continuous infusion treatment group compared with 26 of 50 rats alive in the injection treatment group. All control animals were dead at Day 30.

[2] = test system: acute myeloid leukemia (KG1) cells; experiment: Acute myeloid leukemia (KG1) mouse model, survival; format: in vivo, mice
Method: Human acute erythro-leukemia (K562) and acute myeloid leukemia (KG1) cells (1×10^6) were injected intraperitoneally in immune-compromised mice. Engraftment was confirmed by complete blood counts, presence of anemia, and clinical assessment of animal behavior.
The mice (total n=120 for each model respectively) were randomized into four (n=30/group) treatment groups. Each treatment regimen was administered in a four week cycle with three weeks of treatment, one week off: • 1. Untreated (control) • 2. Coenzyme Q10 (4%, administered at 75 mg/kg, once/day by continuous infusion) • 3. Chemotherapy (cytarabine/AraC 25 mg/kg, 5×/week; and adriamycin/daunorubicin 5 mg/kg; 1×/wk) • 4. Coenzyme Q10 (4%, administered at 75 mg/kg, once/day by continuous infusion)+chemotherapy (cytarabine/AraC 25 mg/kg, 5×/week; and adriamycin/daunorubicin 5 mg/kg; 1×/wk)
All dosings were intravenous and followed a protocol of 3 week treatment followed by 1 week rest. Leukemia was monitored by pallor and blood smears, and hone marrow smears were performed post-mortem for analysis using Wright's stain. Survival results from the study of mice with acute erythroleukemia are show in FIG. 5. Day 1 is the first day of treatment with coenzyme Q10 and/or chemotherapy.

[3] = First-in-human Phase 1 study (CTL0510), 4-hour IV infusion 3 times weekly: safety
Method: (§1) The first-in-human Phase 1 study with coenzyme Q10 nanosuspension (40 mg/ml) was conducted in 50 patients with advanced solid tumors. The objectives were to assess the safety, maximum tolerated dose, PK and PD of coenzyme Q10, specifically a 4% coenzyme Q10 nanosuspension formulation (as described in WO 2011/112900, the entire contents of which are expressly incorporated herein by reference), administered as a 4-hour IV infusion 3 times weekly in 28-day cycles. Nine dose levels were explored ranting from 5.62 to 139 mg/kg. Plasma concentration profiles and PK parameters were determined from blood samples collected pre-dose and at intervals to 48 hours post-dose.

chloroleukemia (MIA C51) = conditions: IP
[4] = test system: H522 human lung cancer cells; experiment: H522 human lung cancer rat model, survival; format: in vivo, rats
Method: The effect of coenzyme Q10 dosing regimens was further investigated in rats implanted with H522 human lung cancer cells. Rats were randomized to receive either no treatment (control), continuous infusion with coenzyme Q10, chemotherapy, or a combination of coenzyme Q10 and chemotherapy. The dose of coenzyme Q10 was 50 mg/kg per day over 24 hours and the concentration was 4%. The chemotherapy was repeated on a three week cycle as follows: week 1: I.V. Cyclophosphamide, 35 mg/kg, 1×/wk and I.V. Doxorubicin 2.5 mg/kg, 3×/wk; Weeks 2-3: no treatment.

[5] = Phase 1a/b study, 96-hour continuous IV infusion: pharmacokinetics; format: in vivo, human
Method: Blood samples for pharmacokinetic and pharmacodynamic analyses are collected during each cycle of monotherapy and combination therapy. Urine samples for determination of coenzyme Q10 renal clearance are collected only during Cycle 1 of monotherapy and combination therapy. A PET scan is performed within 2 weeks prior to starting treatment and after 2 weeks of coenzyme Q10 treatment, and 8 weeks of treatment on Arm 1 or 10 weeks of treatment on Arm 2. Core biopsies (2-3) are performed at the time of baseline and Week 2 PET scan for patients who opt-in to participate in these exploratory studies.

advanced solid tumors = experiment: First-in-human Phase 1 study (CTL0510), 4-hour IV infusion 3 times weekly: tumor response; format: in vivo
Method: as §1

Q: Which “survival compared to control” value ([1]; both continuous infusion and injection 3 times a day, 50 mg/kg per day) does the source give for coenzyme Q10 here?
A: significantly prolonged survival

Q: And the “rats alive at Day 189” value ([1]; continuous infusion of 40 mg/mL (4%) coenzyme Q10, 50 mg/kg body weight per day)?
A: 45 of 50

Q: What about the “effectiveness of continuous infusion regimen” value ([1]; continuous infusion vs injection 3 times a day, 50 mg/kg per day) of the same substance?
A: much more effective than the injection regimen

Q: What about the “rats alive at Day 189” value ([1]; injection 3 times a day of 40 mg/mL (4%) coenzyme Q10, total 50 mg/kg body weight per day) of the same substance?
A: 26 of 50

Q: What about the survival ([2]; coenzyme Q10 75 mg/kg/day continuous infusion + chemotherapy (cytarabine + daunorubicin) vs other groups incl. chemotherapy alone, p<0.00001) of the same substance?
A: significant increase in survival

Q: What about the survival ([2]; coenzyme Q10 alone (4%, 75 mg/kg once/day by continuous infusion) vs chemotherapy (cytarabine + daunorubicin)) of the same substance?
A: improved survival compared to chemotherapy

Q: What about the “serious adverse events (bleeding) resulting in the patient's death due to hemothorax” value ([3]; 104.3 mg/kg dose level) of the same substance?
A: One

Q: And the “AST increased, laboratory AE” value ([3]; in vivo)?
A: 8%

Q: And the “CTCAE grade of the majority of adverse events” value ([3]; in vivo)?
A: grade 1 or 2

Q: What about the “PTT prolonged, laboratory AE” value ([3]; in vivo) of the same substance?
A: 80%

Q: And the “SAEs reported as possibly related to coenzyme Q10” value ([3]; in vivo)?
A: Two

Q: And the “alkaline phosphatase increased, laboratory AE” value ([3]; in vivo)?
A: 2%

Q: What about the “arthritis, AE related to coenzyme Q10” value ([3]; in vivo) of the same substance?
A: 4%

Q: What about the “chills, AE related to coenzyme Q10” value ([3]; in vivo) of the same substance?
A: 6%

Q: And the “dose limiting toxicities (DLTs)” value ([3]; in vivo)?
A: no dose limiting toxicities (DLTs) were identified

Q: And the “fatigue, AE related to coenzyme Q10” value ([3]; in vivo)?
A: 24%

Q: What about the “fever, AE related to coenzyme Q10” value ([3]; in vivo) of the same substance?
A: 8%

Q: What about the “headache, AE related to coenzyme Q10” value ([3]; in vivo) of the same substance?
A: 10%

Q: And the “increased INR considered related to coenzyme Q10” value ([3]; in vivo)?
A: 68%

Q: And the “nausea, AE related to coenzyme Q10” value ([3]; in vivo)?
A: 8%

Q: And the “patients who died due to disease progression or intercurrent illness during the study” value ([3]; in vivo)?
A: Twenty

Q: What about the “patients who discontinued treatment due to AEs reported as unrelated to treatment” value ([3]; in vivo) of the same substance?
A: Four

Q: What about the “patients who experienced abnormal INR values” ([3]; in vivo) of the same substance?
A: 38 patients

Q: What about the “patients with clinically significant increased INR” value ([3]; in vivo) of the same substance?
A: 14 patients

Q: What about the “platelet count decreased, laboratory AE” value ([3]; in vivo) of the same substance?
A: 14%

Q: What about the “vital signs or physical examination findings” value ([3]; in vivo) of the same substance?
A: No clinically significant changes

Q: And the “survival in animals with metastasis to the lungs and liver” value (chloroleukemia (MIA C51); 50 mg/kg/day)?
A: significant increase in survival

Q: And the “limb paralysis (paraplegia due to brain metastasis)” value (chloroleukemia (MIA C51); (St) mg/kg/day)?
A: complete resolution of limb paralysis

Q: What about the animal survival ([4]; continuous infusion 50 mg/kg per day combined with chemotherapy (cyclophosphamide + doxorubicin)) of the same substance?
A: more effective than either treatment alone

Q: And the animal survival ([4]; continuous infusion alone, 50 mg/kg per day over 24 hours, 4%, vs cyclophosphamide + doxorubicin)?
A: more effective than chemotherapy alone

Q: And the “increase in the intratumor concentration of Coenzyme Q11” value ([5]; Patient 1, gastric adenocarcinoma, dose level 1 (66 mg/kg week))?
A: 15 fold

Q: And the pharmacokinetics ([5]; initial tested doses)?
A: linear distribution

Q: What about the progressive disease (advanced solid tumors; 15 patients) of the same substance?
A: 30%

Q: What about the “best response stable disease” value (advanced solid tumors; 23 of 50 patients) of the same substance?
A: 46%

Q: What about the partial response (advanced solid tumors; patient with a sarcoma) of the same substance?
A: One
